Experiments:
HT-29 cells = test: MTT cell viability assay, HT-29; type: cell-based; conditions: Homo sapiens; for viability at 10 µM: HT-29, 10 µM, 48 h, read-out: Cell growth % at 10 µM, HT-29; for IC50: HT-29, 48 h
Description: The cell lines were obtained from the American Type Culture Collection (ATCC). Five tumor cell lines (MDA-MB-231, MCF-7, HCT116, HTB-54, and DU-145) and two non-tumorigenic cells (184B5 and BEAS-2B) were grown in RPMI 1640 medium (Gibco), and the HT-29 tumor cell line was grown in McCoy’s medium. Both mediums were supplemented with 10% fetal bovine serum (FBS; Gibco) and 1% antibiotics (10.00 units/mL penicillin and 10.00 μg/mL streptomycin; Gibco). Cells were preserved in tissue culture flasks at 37 °C and 5% CO2. The culture medium was replaced every three days.
The effect of each compound on cell viability was tested using the MTT assay. […] Selected compounds were then tested at seven different concentrations (0.5–100 μM) in MCF-7, HCT116, HT-29, HTB-54, 184B5 and BEAS-2B cells. Cells were seeded at 10^4 per well onto flat-bottomed 96-well culture plates. They were treated with either DMSO or increasing concentration of the corresponding compound for 48 h. Then, they were incubated with 20 μL of 3-(4,5-dimethylthiazol-2-yl)-2,5-diphenyltetrazolium bromide (MTT) (2 mg /mL stock; Aldrich) for 2,5 h and analyzed for their ability to generate a purple formazan dye. These formazan crystals were dissolved in 50 μL of DMSO. The absorbance was measured at a wavelength of 550 nm and the ratio of viable cells was calculated.
Results are expressed as cell viability % at 10 μM. Selectivity index were calculated as the ratio of the IC50 values determined for the non-malignant and the tumor cells in breast (IC50 (184B5)/IC50 (MCF-7)) and lung (IC50 (BEAS-2B)/IC50 (HTB-54)) cell lines. Data were obtained from at least three independent experiments performed in triplicates.

[1] = tested on: melanoma and ovarian cancer cell lines; test: NCI-60 Five-Dose assay, melanoma and ovarian lines; type: cell-based, human
Description: Compounds 14a and 17a were submitted to the Developmental Therapeutics Program (DTP) of National Cancer Institute (NCI). […] […] Cells grew in the RPMI 1640 medium containing 5% fetal bovine serum and 2 mM L-glutamine and were inoculated into 96-well microtiter plates in 100 μL at plating densities ranging from 5.000 to 40.000 cells/well. The microtiter plates inoculated with cells were incubated at 37 °C, in 5% humidified CO2 for 24 h prior to addition of experimental drugs. Then, experimental drugs were added, and the microtiter plates were incubated for 48 h. The protocol is available on https://dtp.cancer.gov/discovery_development/nci-60/methodology.htm accessed on 31 December 2022.

AChE = biological target: T1, AChE (Rattus norvegicus, UniProt P37136); test: AChE inhibition by Ellman's method (rat frontal cortex homogenate); type: biochemical
T1 construct: from tissue; host or cells: frontal cortex of male Wistar rats (crude homogenate)
T1 sequence (P37136 32-614): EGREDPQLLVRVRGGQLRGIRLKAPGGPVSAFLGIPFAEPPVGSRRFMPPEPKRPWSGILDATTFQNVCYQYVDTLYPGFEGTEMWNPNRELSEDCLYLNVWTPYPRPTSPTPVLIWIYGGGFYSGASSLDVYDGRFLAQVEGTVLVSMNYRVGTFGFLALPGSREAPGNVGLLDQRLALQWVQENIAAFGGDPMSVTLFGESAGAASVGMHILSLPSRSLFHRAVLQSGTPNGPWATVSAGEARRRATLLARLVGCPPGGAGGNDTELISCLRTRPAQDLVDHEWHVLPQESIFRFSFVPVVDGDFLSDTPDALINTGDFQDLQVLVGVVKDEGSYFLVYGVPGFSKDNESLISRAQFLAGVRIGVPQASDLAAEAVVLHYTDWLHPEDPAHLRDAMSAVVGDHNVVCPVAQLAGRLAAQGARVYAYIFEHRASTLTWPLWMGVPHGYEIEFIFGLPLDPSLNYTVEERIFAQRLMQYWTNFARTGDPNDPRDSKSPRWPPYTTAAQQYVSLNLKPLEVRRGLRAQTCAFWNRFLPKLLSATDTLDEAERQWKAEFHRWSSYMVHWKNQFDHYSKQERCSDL
Description: Frontal cortex tissue obtained from male Wistar rats was homogenized in 39 volumes of 75 mM sodium phosphate buffer (pH 7.4). A mixture of 260 μL containing the compounds assessed, acetylthiocholine iodide and 5 μL tissue homogenate was incubated for 8 min. The reaction was then terminated by adding 50 μL 3% (w/v) sodium dodecyl sulphate followed by 50 μL 0.2% (w/v) 5,5′-dithio-bis(2-nitrobenzoic) acid to produce the yellow anion of 5-thio-2-nitro-benzoic-acid. The extent of the color production was measured spectrophotometrically at 405 nm using Multiskan Ex (Thermo Electron Corporation). […] Results are expressed as the mean ± SD and each experiment was repeated three times.

in vitro = test: in vitro
Description: Franz diffusion cells (Microette 8910130, Hanson Research) were employed to perform this assay. The compounds were dissolved in DMSO at 5 mg/mL and diluted to 500 µg/mL with phosphate-buffered saline (PBS)/EtOH (7:3) to make a stock solution. A total of 10 µL of porcine brain lipid (PBL) diluted in dodecane solution (20 mg/mL) was spread onto a PVDF membrane that was placed between the donor and acceptor compartments, forming a sandwich structure. Then, 4.5 mL of PBS/EtOH (7:3) was added to the acceptor compartment and 700 µL of the stock solution was added to the donor cell. […] The concentration of the compound was calculated from the standard curve and expressed as permeability (Pe) by the following formula [84]:Permeability (cm/s): Pe = {−ln [1 − CA(t)/Ceq]}/[A ∗ (1/VD + 1/VA) ∗ t]
A = filter area ([…]), VD = donor cell volume (0.7 mL), VA = acceptor cell volume (4.5 mL), t = incubation time, CA (t) = compound concentration in acceptor cell at time t, CD (t) = compound concentration in donor cell at time t, and Ceq = [CD(t) ∗ VD + […] ∗ VA]/(VD + VA).
Every sample was analyzed at least in duplicate and the data were reported as mean ± SD.

SMILES | viability at 10 µM (HT-29 cells) [%] | IC50 (HT-29 cells) [µM] | LD50 [1] | IC50 (AChE) [µM] | % AChE Inhibition (AChE; at 10^−6 M, Ellman's method) [%] | inhibition at 1 µM (AChE; at 10^−6 M, Ellman's method) [%] | Papp at 20 h, 500 µg/mL (in vitro; PAMPA) [×10⁻⁶ cm/s] | fold higher Pe compared to galantamine (in vitro; PAMPA-BBB) [fold] | Pe ± SD (in vitro; PAMPA-BBB, porcine brain lipid, 20 h, 25 °C) [×10⁻⁶ cm/s] | BBB Permeation (Experimental) (in vitro; class from PAMPA-BBB Pe)
C=CC[Se]C(=O)c1ccccc1OC(C)=O [Compound 14a, 2-(allylselanylcarbonyl)phenylacetate] | 53.9 ± 5.3 | 6.4 ± 1 | below 9.2 µM | 0.9 ± 0.2 | 43.5 ± 2.6 | 43.5 | 36.9 ± 0.1 | 3 | 36.92 | High (High BBB permeation predicted; Pe (10^−6 cm s^−1) > 4.0)
C=CC[Se]C(=O)Cc1c(C)n(C(=O)c2ccc(Cl)cc2)c2ccc(OC)cc12 [Compound 17a, Se-allyl 2-[1-(4-chlorobenzoyl)-5-methoxy-2-methyl-1H-indol-3-yl]ethaneselenoate] | 38.7 ± 6 | 5.9 ± 0.8 | below 9.2 µM | – | – | 19.2 ± 8.3 | – | – | – | –
